Experimental data taken from article PMC8197275, “Novel Tdp1 Inhibitors Based on Adamantane Connected with Monoterpene Moieties via Heterocyclic Fragments” (Molecules, 2021).

Legend:
[1] = Cytotoxicity, EZ4U Cell Proliferation and Cytotoxicity Assay, HeLa; format: cell-based; conditions: human, HeLa cells, cervical cancer HeLa
Experimental: (§1) The cytotoxicity of compounds was investigated using HeLa (cervical cancer), SW837 and HCT-116 (colon cancers) cell lines, and the results are shown in Table 1 and Figure S2 in the Supplementary Materials. […] In general, the HeLa cell line was less sensitive to the inhibitors than the HCT-116 and SW837 cells.
(§2) The human cervical cancer HeLa cells were grown in Iscove’s modified Dulbecco’s medium (IMDM) with 40 μg/mL gentamicin, 50 IU/mL penicillin, 50 μg/mL streptomycin (MP Biomedicals), and 10% of fetal bovine serum (Biolot) in a 5% CO2 atmosphere. Human colon adenocarcinoma HCT-116, rectum adenocarcinoma SW837, and human embryo kidney HEK293A cell lines were cultured in DMEM medium (Invitrogen) supplemented with 10% fetal bovine serum (FBS) (Invitrogen), penicillin (100 units/mL), and streptomycin (100 μg/mL), at 37 °C, 5% CO2 in a humid atmosphere. After the formation of a 30–50% monolayer, the tested compounds were added to the medium. The volume of the added reagents was 1/100 of the total volume of the culture medium, and the amount of DMSO was 1% of the final volume. Control cells were grown in the presence of 1% DMSO. The cell culture was monitored for 3 days.
(§3) The cytotoxicity of the compounds to HeLa and HEK293A cell lines was examined using the EZ4U Cell Proliferation and Cytotoxicity Assay (Biomedica, Austria), according to the manufacturer’s protocols.

[2] = Cytotoxicity, MTT test, HCT-116; format: cell-based; conditions: human, HCT-116 cells; colorectal HCT-116, 72 h MTT
Experimental: as §1, §2
(§4) The medium was removed, and the dark blue crystals of formazan were dissolved in 100 μL of isopropanol. The absorbance at 570 nm (peak) and 620 nm (baseline) was determined using a microplate reader Multiscan FC (Thermo Fisher Scientific Corporation). All concentrations were performed in triplicate. The values are given as mean ± standard deviation (S.D.) values, and all measurements were repeated three times.

[3] = Cytotoxicity, MTT test, SW837; format: cell-based; conditions: human, SW837 cells; colorectal SW837, 72 h MTT
Experimental: as §1, §2, §4

[4] = test system: HEK293A cells; assay: Cytotoxicity on noncancerous cell line HEK293A (EZ4U); format: cell-based, human; conditions: concentrations up to 30 μM; data not shown
Experimental: as §1, §2, §3

[5] = test system: HeLa cells; assay: Sensitizing of HeLa cells to topotecan by Tdp1 inhibitors; format: cell-based, human; conditions: for combination index (CI) with topotecan: HeLa, different concentrations of topotecan, CompuSyn
Experimental: (§5) The potential for sensitizing the cancer cell lines to topotecan using the Tdp1 inhibitors was investigated using the MTT assay. Neutralizing the enzymatic activity of Tdp1 by blocking access to its catalytic site using a small molecule should sensitize the cytotoxic potential of topotecan, since the complex of Top1 with DNA cannot be unraveled. […] Nontoxic concentrations of the adamantane derivatives (5 μM) were used for the HeLa cell line; the dose response for topotecan was measured and the corresponding CC50 values were derived, and the results are shown in Figure 4 for 20c and in Table 2 for all the derivatives.
(§6) For HeLa cells, increased cytotoxicity was seen when the adamantanes and topotecan were combined. […] The combination index (CI) for different concentrations of topotecan and 20c at 5 μM was in the range 0.49–0.82, and at 10 μM of 20c, it was 0.23–0.78. This indicates a synergistic effect of topotecan and 20c. The CI values were calculated with the CompuSyn version 1.0 software. For the HCT-116 cells, the synergistic effects of the compounds were different than for the HeLa cells. […] The CI plot at a different fraction affected (Fa) was determined for topotecan (5, 15, 150, 500 and 1500 nM) and 20g (1, 3, 10, 20 μM). The CI values for most of the combinations correspond to a synergistic effect (CI < 1, see Figure S3 in the Supplementary Materials).
as §2, §3

[6] = test system: HCT-116 cells; assay: Sensitizing of HCT-116 cells to topotecan by Tdp1 inhibitors; format: cell-based, human; conditions: human, 72 h, 15 µM
Experimental: as §5, §6, §2, §4

[7] = biological target: Tdp1 (Homo sapiens, UniProt Q9NUW8); assay: Tdp1 cleavage activity, fluorophore quencher-coupled DNA-biosensor, real-time; format: biochemical; parameters: inferred from the pET 16B vector and Ni-chelating resin purification; made in house; conditions: recombinant Tdp1 1.5 nM, 50 nM biosensor; read-out: IC50 (Tdp1 activity inhibition at 50%)
Experimental: The recombinant Tdp1 was purified to homogeneity by chromatography on Ni-chelating resin and phosphocellulose P11 as described, using plasmid pET 16B-Tdp1, kindly provided by Dr. K.W. Caldecott (University of Sussex, United Kingdom). Tdp1 activity was detected as described in the work. Briefly, we measured the fluorescence intensity after quencher removal from a fluorophore quencher–coupled DNA oligonucleotide catalyzed by Tdp1. The reaction was carried out at different concentrations of inhibitors. The control samples contained 1% DMSO. The reaction mixtures contained Tdp1 buffer (50 mM Tris-HCl pH 8.0, 50 mM NaCl, and 7 mM β-mercaptoethanol), 50 nM biosensor, and an inhibitor being tested. The reaction was started by the addition of purified Tdp1 (1.5 nM). The biosensor (5′-[FAM] AAC GTC AGGGTC TTC C [BHQ]-3′) was synthesized in the Laboratory of Biomedical Chemistry at the Institute of Chemical Biology and Fundamental Medicine (Novosibirsk, Russia).
The reactions were incubated on a POLARstar OPTIMA fluorimeter (BMG LAB-TECH, GmbH) to measure fluorescence every 55 s (ex. 485 nm/em. 520 nm) during the linear phase (here, data are from minute 0 to minute 8). The values of IC50 were determined using a six-point concentration response curve in a minimum of three independent experiments, and were calculated using MARS Data Analysis 2.0 (BMG LABTECH).

Sequence of Tdp1 (Q9NUW8 whole entry): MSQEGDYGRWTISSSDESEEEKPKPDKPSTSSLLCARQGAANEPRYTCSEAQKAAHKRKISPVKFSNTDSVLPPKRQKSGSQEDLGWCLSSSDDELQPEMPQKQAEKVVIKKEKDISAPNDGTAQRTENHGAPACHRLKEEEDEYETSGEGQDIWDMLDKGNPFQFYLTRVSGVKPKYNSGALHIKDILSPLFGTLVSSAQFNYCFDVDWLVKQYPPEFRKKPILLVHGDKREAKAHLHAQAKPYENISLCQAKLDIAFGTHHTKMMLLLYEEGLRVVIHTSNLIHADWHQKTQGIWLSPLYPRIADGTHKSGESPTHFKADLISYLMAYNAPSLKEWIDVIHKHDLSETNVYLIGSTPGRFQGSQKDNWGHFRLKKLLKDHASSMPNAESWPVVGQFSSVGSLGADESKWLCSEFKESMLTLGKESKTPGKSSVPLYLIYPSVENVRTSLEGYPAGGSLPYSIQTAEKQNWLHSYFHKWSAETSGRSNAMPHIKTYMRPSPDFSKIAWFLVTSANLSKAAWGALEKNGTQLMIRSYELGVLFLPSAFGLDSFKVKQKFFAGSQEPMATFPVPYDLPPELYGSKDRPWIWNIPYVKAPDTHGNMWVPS

IC50 [7]: 5.3 ± 1.7 µM
Structure (SMILES): CC(C)=CCC/C(C)=C/CSc1n[nH]c(C23CC4CC(CC(C4)C2)C3)n1 [20c, 5-(Adamantan-1-yl)-3-(((E)-3,7-dimethylocta-2,6-dien-1-yl)thio)-1H-1,2,4-triazole]
CC50 at 3 days [1]: 64 ± 6 µM
CC50 at 72 h [2]: 16 ± 7 µM
CC50 at 72 h [3]: 41 ± 6 µM
effect on cell viability, HEK293A [4]: no effect on cell viability
potentiation of the cytotoxic potency of topotecan [5]: 3 ×
combination index (CI) with topotecan ([5]; inhibitor at 5 μM): 0.49–0.82
combination index (CI) with topotecan ([5]; inhibitor at 10 μM): 0.23–0.78
HeLa CC50 of topotecan with Tdp1 inhibitor ([5]; human, 3 days, 5 µM): 1.9 µM
HCT116 CC50 of topotecan with Tdp1 inhibitor [6]: 460.0 (15) nM
